Laboratory results published in article PMC9710782, “Plantaricin NC8 αβ rapidly and efficiently inhibits flaviviruses and SARS-CoV-2 by disrupting their envelopes” (PLOS ONE, 2022).

Key:
IAV (H1N1/CApdm09) = assay: Influenza A virus inhibition (plaque) assay; assay type: cell-based; conditions: read-out: concentration required to suppress IAV (by 50%)
SARS-CoV-2 = SARS-CoV-2 virus inhibition (plaque) assay; assay type: cell-based, Severe Acute Respiratory Syndrome Coronavirus 2; conditions: read-out: concentration for 50% reduction of PFU / viral load (SARS-CoV-2)
LGTV = tested on: LGTV; set-up: species or system Langat virus
[1] = tested on: Langat virus strain TP21 (LGTV); assay type: cell-based; conditions: n = 4

Row | Sequence | IC50 (IAV (H1N1/CApdm09)) | IC50 (SARS-CoV-2) | permeabilization of LGTV particles (Sytox Green staining), single peptide (LGTV) | effect on virus infectivity (LGTV viral load) [1]
1 | SVPTSVYTLGIKILWSAYKHRKTIEKSFNKGFYH [D-PLNC8 β] | ~500 nM | ~500 nM | permeabilized | –
2 | LLGDFFRKSKEKIGKEFKRIVQRIKDFLRNLVPRTES [LL-37, human cathelicidin-derived antimicrobial peptide used as a control, reference compound] | – | – | – | did not affect virus infectivity
3 | DLTTKLWSSWGYYLGKKARWNLKHPYVQF [D-PLNC8 α] | – | – | not as efficient | –
